The source made the active and inactive calls.

As a reminder, the Ki is a dissociation constant, usually derived from enzyme kinetics or from competition with a known ligand. For orientation: IC50 means the concentration that gives 50% inhibition.

Holding throughout (type): functional
Assay [1] addresses High affinity nerve growth factor receptor (Homo sapiens, UniProt P04629).
The target of assay [2] is Receptor-type tyrosine-protein kinase FLT3 (Homo sapiens, UniProt P36888).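 Further: FLT3 was tested as one member of a kinome-wide kinase panel.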
The target in assay [3] is Calcium/calmodulin-dependent protein kinase type II subunit alpha (Homo sapiens, UniProt Q9UQM7). Kind of assay: Navigating the Kinome. Panel member name: CAMK2A.
Assay [4] concerns the target Serine/threonine-protein kinase pim-1 (Homo sapiens, UniProt P11309).
Assay [5] addresses Macrophage colony-stimulating factor 1 receptor (Homo sapiens, UniProt P07333).
Assay [6] has as its target Death-associated protein kinase 3 (Homo sapiens, UniProt O43293).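 Further: measured as one member of a kinome-wide profiling panel.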
In assay [7] the target is Platelet-derived growth factor receptor beta (Homo sapiens, UniProt P09619).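 Further: value comes from a kinome panel, with PDGFRB tested as one panel member.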
For assay [8], the target named is Protein kinase C theta type (Homo sapiens, UniProt Q04759). Description: Navigating the Kinome. Panel member name: PRKCQ.
The next assay has as its target T1, Aurora kinase A (Homo sapiens, UniProt O14965).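 Further: value from the Navigating the Kinome kinase panel profiling, panel entry STK6.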
T1 sequence (O14965 whole entry): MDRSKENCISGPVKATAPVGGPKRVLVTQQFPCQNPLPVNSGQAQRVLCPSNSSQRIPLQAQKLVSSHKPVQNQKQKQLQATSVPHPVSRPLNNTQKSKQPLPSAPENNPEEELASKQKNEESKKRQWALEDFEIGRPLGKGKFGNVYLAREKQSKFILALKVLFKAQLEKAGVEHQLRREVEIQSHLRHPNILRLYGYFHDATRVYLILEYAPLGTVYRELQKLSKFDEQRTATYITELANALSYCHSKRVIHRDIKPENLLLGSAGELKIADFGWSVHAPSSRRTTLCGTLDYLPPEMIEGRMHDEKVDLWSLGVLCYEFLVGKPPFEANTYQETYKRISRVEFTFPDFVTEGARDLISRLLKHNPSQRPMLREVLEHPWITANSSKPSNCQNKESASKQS

The target of assay [9] is 5'-AMP-activated protein kinase catalytic subunit alpha-1 (Homo sapiens, UniProt Q13131).
Assay [10] has as its target cAMP-dependent protein kinase catalytic subunit alpha (Homo sapiens, UniProt P17612).
In assay [11] the target is Dual specificity tyrosine-phosphorylation-regulated kinase 1A (Homo sapiens, UniProt Q13627).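 Further: measured against DYRK1A as one member of a broad kinome profiling panel.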
Assay [12] has as its target Ribosomal protein S6 kinase alpha-3 (Homo sapiens, UniProt P51812).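 Further: measured within a kinome-wide profiling panel.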
The target in assay [13] is Hepatocyte growth factor receptor (Homo sapiens, UniProt P08581).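 Further: kinase panel profiling across the kinome, with MET as the panel member.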
Assay [14] has as its target BDNF/NT-3 growth factors receptor (Homo sapiens, UniProt Q16620).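 Further: NTRK2 measured as one member of a broad kinome-wide kinase profiling panel.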
The target in assay [15] is Mitogen-activated protein kinase 8 (Homo sapiens, UniProt P45983).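 Further: value comes from one member of a kinome-wide kinase profiling panel.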
In assay [16] the target is Dual specificity protein kinase CLK4 (Homo sapiens, UniProt Q9HAZ1).
In assay [17] the target is Mitogen-activated protein kinase kinase kinase kinase 2 (Homo sapiens, UniProt Q12851).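 Further: measured as one member of a kinome-wide kinase panel, with MAP4K2 as the panel entry.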
Assay [18] addresses Dual specificity tyrosine-phosphorylation-regulated kinase 1B (Homo sapiens, UniProt Q9Y463). Kind of assay: Navigating the Kinome. Panel member name: DYRK1B.
Assay [19] deals with Glycogen synthase kinase-3 beta (Homo sapiens, UniProt P49841).
In assay [20] the target is Cyclin-dependent kinase 19 (Homo sapiens, UniProt Q9BWU1). Description: Navigating the Kinome. Panel member name: CDC2L6.
Assay [21] has as its target Cyclin-dependent kinase 9 (Homo sapiens, UniProt P50750).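 Further: value from the CDK9 entry of a kinome-spanning kinase panel.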
Assay [22] concerns the target Tyrosine-protein kinase ABL1 (Homo sapiens, UniProt P00519).
Assay [23] has as its target Tyrosine-protein kinase JAK2 (Homo sapiens, UniProt O60674).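 Further: JAK2 tested as one member of a kinase panel.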
For assay [24], the target named is Vascular endothelial growth factor receptor 2 (Homo sapiens, UniProt P35968).
Assay [25] has as its target Glycogen synthase kinase-3 alpha (Homo sapiens, UniProt P49840).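 Further: GSK3A result taken from a broad kinome-wide kinase panel.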
Assay [26] concerns the target Serine/threonine-protein kinase Chk1 (Homo sapiens, UniProt O14757).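 Further: measured as one member of a kinome-wide kinase profiling panel.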
In assay [27] the target is Tyrosine-protein kinase receptor TYRO3 (Homo sapiens, UniProt Q06418).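 Further: TYRO3 value obtained as one member of a kinome-wide profiling panel.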
Assay [28] addresses Proto-oncogene tyrosine-protein kinase receptor Ret (Homo sapiens, UniProt P07949).
In another assay the target is LIM domain kinase 1 (Homo sapiens, UniProt P53667). Kind of assay: Navigating the Kinome. Panel member name: LIMK1.
For assay [29], the target named is Dual specificity mitogen-activated protein kinase kinase 2 (Homo sapiens, UniProt P36507). Kind of assay: Navigating the Kinome. Panel member name: MAP2K2.
Assay [30] deals with T2, High affinity choline transporter 1 (Homo sapiens, UniProt Q9GZV3).
T2 sequence (Q9GZV3 whole entry): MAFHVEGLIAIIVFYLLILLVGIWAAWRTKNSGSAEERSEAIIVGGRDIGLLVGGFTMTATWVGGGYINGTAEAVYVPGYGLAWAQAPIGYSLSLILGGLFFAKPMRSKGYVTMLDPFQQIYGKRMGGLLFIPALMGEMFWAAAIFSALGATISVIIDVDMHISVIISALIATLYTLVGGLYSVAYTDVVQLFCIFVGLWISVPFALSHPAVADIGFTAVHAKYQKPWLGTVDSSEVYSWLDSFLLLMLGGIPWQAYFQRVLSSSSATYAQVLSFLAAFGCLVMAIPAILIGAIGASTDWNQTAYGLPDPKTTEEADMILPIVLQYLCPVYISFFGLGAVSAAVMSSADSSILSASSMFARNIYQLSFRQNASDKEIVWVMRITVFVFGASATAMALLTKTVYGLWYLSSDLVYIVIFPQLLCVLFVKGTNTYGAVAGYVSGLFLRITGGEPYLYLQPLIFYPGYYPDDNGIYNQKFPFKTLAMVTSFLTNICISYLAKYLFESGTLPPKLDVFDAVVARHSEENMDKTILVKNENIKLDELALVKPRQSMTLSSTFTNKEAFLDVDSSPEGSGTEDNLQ
Kind of assay: CHT inhibitors, dose response, cell-based, 5-point CRC, membrane potential dye (AID 504840).

In assay [31] the target is T2, High affinity choline transporter 1. Description: CHT inhibitors, dose response, cell-based, 10-point CRC, membrane potential dye (AID 588401).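 Further: membrane potential dye fluorescence of choline-evoked depolarization via CHT.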

Cyclin-dependent kinase 19, sequence (Q9BWU1 whole entry): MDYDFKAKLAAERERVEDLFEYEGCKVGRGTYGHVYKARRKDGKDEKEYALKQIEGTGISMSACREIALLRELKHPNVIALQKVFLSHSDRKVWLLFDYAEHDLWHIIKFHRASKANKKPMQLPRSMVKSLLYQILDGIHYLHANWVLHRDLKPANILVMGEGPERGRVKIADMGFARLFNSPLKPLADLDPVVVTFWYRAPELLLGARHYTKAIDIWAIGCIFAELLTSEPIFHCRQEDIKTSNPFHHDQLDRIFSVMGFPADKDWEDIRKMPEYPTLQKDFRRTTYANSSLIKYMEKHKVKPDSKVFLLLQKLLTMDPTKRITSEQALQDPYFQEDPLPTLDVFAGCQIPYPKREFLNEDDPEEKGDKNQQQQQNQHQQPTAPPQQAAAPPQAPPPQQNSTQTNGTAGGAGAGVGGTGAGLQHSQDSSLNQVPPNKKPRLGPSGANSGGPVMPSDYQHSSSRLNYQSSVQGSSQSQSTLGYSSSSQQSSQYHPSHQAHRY
Vascular endothelial growth factor receptor 2, sequence (P35968 whole entry): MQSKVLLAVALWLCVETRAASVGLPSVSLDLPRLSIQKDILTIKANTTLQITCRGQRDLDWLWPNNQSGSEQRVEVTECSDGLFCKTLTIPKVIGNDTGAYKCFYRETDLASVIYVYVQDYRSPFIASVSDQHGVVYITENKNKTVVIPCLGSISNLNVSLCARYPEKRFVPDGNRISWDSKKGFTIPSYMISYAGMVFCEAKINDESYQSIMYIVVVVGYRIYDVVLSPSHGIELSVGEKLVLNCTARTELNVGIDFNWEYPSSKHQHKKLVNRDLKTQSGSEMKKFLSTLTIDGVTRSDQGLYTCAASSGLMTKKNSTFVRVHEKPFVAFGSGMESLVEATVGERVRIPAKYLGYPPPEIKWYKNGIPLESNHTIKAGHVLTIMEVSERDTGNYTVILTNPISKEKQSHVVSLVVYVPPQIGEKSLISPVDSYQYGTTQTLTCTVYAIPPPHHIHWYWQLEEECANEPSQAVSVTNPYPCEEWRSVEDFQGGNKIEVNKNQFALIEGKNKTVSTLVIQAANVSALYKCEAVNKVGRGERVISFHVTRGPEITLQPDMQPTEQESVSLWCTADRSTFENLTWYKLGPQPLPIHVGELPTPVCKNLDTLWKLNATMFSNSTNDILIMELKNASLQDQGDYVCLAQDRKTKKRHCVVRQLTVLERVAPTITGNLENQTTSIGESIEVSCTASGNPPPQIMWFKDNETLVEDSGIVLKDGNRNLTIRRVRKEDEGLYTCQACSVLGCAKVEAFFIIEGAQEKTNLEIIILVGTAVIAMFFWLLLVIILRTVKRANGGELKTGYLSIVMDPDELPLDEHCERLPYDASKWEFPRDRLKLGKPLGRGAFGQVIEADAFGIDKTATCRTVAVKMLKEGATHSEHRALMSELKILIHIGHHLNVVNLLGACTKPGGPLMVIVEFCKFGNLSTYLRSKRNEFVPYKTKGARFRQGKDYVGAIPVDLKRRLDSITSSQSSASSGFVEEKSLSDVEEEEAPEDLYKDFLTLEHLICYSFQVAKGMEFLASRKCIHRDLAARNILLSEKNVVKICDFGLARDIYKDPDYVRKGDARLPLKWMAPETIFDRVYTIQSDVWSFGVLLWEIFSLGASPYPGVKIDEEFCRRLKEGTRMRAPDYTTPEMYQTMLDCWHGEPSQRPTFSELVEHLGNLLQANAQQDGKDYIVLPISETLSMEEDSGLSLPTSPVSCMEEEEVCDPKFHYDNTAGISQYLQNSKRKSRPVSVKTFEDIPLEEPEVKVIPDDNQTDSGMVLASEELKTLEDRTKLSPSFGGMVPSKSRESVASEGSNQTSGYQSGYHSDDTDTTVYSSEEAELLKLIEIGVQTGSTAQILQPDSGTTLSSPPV
Tyrosine-protein kinase receptor TYRO3, sequence (Q06418 whole entry): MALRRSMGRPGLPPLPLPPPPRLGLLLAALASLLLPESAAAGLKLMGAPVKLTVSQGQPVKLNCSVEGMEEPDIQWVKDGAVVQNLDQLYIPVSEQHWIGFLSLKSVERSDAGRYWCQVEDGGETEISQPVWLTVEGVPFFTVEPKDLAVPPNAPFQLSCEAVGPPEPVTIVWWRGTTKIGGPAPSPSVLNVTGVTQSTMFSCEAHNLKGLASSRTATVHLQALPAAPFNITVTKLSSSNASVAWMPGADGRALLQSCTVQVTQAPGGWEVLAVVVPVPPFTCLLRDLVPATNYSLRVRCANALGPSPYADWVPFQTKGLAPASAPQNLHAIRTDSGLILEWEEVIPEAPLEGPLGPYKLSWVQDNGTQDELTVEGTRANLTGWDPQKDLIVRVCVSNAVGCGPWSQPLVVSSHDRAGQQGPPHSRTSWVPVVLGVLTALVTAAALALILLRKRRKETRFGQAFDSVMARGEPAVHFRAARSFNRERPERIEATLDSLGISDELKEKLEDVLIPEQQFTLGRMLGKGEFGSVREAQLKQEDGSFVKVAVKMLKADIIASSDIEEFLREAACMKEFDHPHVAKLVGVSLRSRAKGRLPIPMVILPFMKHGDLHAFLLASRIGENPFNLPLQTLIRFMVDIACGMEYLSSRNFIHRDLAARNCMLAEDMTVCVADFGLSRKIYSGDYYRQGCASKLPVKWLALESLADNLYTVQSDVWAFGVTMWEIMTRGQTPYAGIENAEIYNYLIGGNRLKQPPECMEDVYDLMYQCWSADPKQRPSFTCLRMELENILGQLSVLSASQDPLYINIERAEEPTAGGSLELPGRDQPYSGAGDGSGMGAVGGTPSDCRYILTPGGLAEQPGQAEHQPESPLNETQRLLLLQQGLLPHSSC
Macrophage colony-stimulating factor 1 receptor, sequence (P07333 whole entry): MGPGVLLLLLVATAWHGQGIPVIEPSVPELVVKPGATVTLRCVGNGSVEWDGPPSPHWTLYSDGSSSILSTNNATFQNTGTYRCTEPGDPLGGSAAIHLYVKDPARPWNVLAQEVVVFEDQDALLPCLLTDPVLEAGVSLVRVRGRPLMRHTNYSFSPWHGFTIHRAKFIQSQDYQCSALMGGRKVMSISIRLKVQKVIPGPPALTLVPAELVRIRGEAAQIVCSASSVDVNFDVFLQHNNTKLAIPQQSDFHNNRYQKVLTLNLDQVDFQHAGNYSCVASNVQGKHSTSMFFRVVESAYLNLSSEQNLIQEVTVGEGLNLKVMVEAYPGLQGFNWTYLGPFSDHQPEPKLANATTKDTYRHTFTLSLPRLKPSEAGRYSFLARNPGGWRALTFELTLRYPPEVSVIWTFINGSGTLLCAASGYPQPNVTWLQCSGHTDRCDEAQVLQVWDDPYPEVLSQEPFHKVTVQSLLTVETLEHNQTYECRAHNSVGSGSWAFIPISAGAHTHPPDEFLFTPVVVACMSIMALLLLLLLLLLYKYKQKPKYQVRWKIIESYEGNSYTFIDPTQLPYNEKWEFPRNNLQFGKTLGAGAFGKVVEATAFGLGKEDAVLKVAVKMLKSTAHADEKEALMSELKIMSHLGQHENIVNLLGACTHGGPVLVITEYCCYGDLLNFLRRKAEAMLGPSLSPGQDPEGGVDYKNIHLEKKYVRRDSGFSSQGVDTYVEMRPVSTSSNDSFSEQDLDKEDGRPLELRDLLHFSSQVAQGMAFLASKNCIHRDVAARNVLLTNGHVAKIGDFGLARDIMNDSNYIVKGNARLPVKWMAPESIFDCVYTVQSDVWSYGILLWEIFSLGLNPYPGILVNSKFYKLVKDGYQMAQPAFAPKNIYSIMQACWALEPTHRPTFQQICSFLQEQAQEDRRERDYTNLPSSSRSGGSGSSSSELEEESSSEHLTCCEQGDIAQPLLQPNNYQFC
5'-AMP-activated protein kinase catalytic subunit alpha-1, sequence (Q13131 whole entry): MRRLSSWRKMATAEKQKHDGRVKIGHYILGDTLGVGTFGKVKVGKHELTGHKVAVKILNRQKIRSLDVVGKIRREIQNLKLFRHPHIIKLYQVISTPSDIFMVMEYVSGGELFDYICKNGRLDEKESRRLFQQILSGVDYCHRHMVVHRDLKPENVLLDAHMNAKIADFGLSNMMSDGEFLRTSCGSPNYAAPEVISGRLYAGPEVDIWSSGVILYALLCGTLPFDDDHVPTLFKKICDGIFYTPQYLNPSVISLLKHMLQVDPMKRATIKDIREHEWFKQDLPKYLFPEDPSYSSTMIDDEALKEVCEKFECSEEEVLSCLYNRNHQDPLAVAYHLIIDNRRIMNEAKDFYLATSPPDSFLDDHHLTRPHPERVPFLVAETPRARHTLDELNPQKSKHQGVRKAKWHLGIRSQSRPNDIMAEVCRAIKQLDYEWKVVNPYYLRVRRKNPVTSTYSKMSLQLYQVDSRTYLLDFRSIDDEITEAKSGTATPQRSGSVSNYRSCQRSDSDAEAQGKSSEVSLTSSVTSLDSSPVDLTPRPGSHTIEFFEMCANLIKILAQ
Dual specificity protein kinase CLK4, sequence (Q9HAZ1 whole entry): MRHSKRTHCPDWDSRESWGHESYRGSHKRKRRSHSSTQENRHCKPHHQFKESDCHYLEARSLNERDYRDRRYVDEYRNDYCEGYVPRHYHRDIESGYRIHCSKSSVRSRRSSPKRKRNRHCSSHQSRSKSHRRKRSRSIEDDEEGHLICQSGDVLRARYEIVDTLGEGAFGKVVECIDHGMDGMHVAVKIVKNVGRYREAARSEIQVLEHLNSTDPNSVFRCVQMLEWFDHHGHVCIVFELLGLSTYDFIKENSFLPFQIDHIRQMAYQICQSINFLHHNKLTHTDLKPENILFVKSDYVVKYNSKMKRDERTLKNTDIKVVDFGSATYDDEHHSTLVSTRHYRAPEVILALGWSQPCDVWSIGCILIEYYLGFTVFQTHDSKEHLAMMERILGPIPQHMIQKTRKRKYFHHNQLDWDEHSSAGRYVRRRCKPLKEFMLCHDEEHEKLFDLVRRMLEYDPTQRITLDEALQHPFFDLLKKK
Serine/threonine-protein kinase pim-1, sequence (P11309 whole entry): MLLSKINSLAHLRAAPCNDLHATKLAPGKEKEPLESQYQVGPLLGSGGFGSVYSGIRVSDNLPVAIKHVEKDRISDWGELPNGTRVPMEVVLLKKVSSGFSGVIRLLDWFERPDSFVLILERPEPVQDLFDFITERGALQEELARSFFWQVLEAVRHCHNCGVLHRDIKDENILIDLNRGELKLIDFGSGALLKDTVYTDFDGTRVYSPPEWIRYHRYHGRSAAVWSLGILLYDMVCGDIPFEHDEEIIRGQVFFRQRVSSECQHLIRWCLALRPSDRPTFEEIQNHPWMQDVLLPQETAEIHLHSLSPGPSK

Turning to `COc1ccc(-c2ccc(N)cc2)c2cnoc12`, the Ki in assay [1] was 15.8 µM (active); in [2], 79.4 µM (active); in assay [3] it was 79.4 µM (active); in assay [4], 12.6 µM (active); in [5], > 100 µM (inactive); in assay [6] it was 79.4 µM (active). Also, the Ki in assay [7] was > 79.4 µM (inactive); in assay [8], > 79.4 µM (inactive); on Aurora kinase A it was > 50.1 µM (inactive); in assay [9], 79.4 µM (active); in [10], > 50.1 µM (inactive); in assay [11], > 63.1 µM (inactive). Moreover, the Ki in assay [12] was 63.1 µM (active); in assay [13], 79.4 µM (active); in [14], 100 µM (active); in assay [15], 50.1 µM (active); in assay [16], 7.94 µM (active); in [17] it was 63.1 µM (active). Further, the Ki in assay [18] is 50.1 µM (active); in assay [19] it was 31.6 µM (active); in assay [20], > 100 µM (inactive); in [21], > 63.1 µM (inactive); in assay [22] it was 63.1 µM (active); in assay [23] it was 79.4 µM (active). The Ki in assay [24] was > 79.4 µM (inactive); in assay [25] it was 100 µM (active); in [26] it was 3.98 µM (active); in assay [27] it was 100 µM (active); in [28], 39.8 µM (active); at LIM domain kinase 1 it was 3.98 µM (active). The inhibition constant (Ki) in assay [29] was 100 µM (active).

In the case of `CC(/C=C1\SC(=S)N(CC(=O)O)C1=O)=C\c1ccccc1`, the IC50 was 9.45 µM (active) in assay [30] and 6.48 µM (active) in assay [31].

For the origin of these results see ChEMBL document CHEMBL1201862, “PubChem BioAssay data set” (2004).
